From patent US20030199671A1, “Binding molecules for Fc-region polypeptides” (priority 2001, published 2003)
Values joined by “and” are separate entries in the source; they are usually repeats but may differ in a detail not shown here. Identical values can stand only once. Like-named read-outs stand apart in the source and are kept apart here. Positions of bridges follow the written chain, without caps; N, C: chain ends. Residues, ends and D or L forms follow the SMILES beside them.

Legend:
Assay in all cases: Fluorescence anisotropy binding, Oregon Green labeled peptide
[1] = target: T1, human plasma IgG2 (Homo sapiens, UniProt P01859)
T1 construct: the individual human plasma IgG isoforms: IgG1, IgG2, IgG3, or IgG4; purchased Calbiochem; host or cells: human plasma
T1 sequence (P01859 1-326 isoform P01859-1): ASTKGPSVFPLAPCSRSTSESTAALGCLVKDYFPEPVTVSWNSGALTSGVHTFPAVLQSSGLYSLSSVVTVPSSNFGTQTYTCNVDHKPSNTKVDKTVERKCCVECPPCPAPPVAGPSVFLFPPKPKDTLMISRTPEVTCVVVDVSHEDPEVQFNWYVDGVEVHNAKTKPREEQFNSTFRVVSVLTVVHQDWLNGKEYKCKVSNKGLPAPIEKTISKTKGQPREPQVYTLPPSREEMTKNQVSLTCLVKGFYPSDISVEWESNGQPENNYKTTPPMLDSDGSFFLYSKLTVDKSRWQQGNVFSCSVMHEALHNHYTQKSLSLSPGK
Experimental: (§1) Peptides were synthesized by BACHEM and then Oregon Green labeled and HPLC purified. Binding studies were performed using human plasma IgG isoforms: IgG1, IgG2, IgG3, and IgG4, obtained from Calbiochem.
(§2) Binding studies were carried out at either pH 4.0, 7.5, or 9.5, with or without salt in the following buffers:
(§3) 2) 10 mM Sodium Citrate, 500 mM Sodium Chloride, 0.01% Tween 20, pH 4.0;
(§4) 4) […], 500 mM Sodium Chloride, 0.01% Tween 20, pH 7.5;
(§5) 5) 10 mM Sodium Bicarbonate, 0.01% Tween 20, pH 9.5;
(§6) 6) 10 mM Sodium Bicarbonate, 500 mM Sodium Chloride, 0.01% Tween 20, pH 9.5; or […]

[2] = target: T2, human plasma IgG4 (Homo sapiens, UniProt P01861)
T2 construct: the individual human plasma IgG isoforms: IgG1, IgG2, IgG3, or IgG4; purchased Calbiochem; host or cells: human plasma
T2 sequence (P01861 1-327 isoform P01861-1): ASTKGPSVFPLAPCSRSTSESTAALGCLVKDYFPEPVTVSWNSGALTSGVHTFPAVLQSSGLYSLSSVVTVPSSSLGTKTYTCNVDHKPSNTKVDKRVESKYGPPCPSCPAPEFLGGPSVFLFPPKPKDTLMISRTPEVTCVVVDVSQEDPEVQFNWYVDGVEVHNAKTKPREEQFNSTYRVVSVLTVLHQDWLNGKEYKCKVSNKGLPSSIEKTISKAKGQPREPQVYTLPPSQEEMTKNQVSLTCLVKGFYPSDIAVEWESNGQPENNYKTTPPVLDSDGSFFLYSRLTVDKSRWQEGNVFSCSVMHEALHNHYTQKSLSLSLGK
Experimental: as §1, §2, §3, §4, §5, §6

[3] = target: T3, human plasma IgG3 (Homo sapiens, UniProt P01860)
T3 construct: the individual human plasma IgG isoforms: IgG1, IgG2, IgG3, or IgG4; purchased Calbiochem; host or cells: human plasma
T3 sequence (P01860 1-377 isoform P01860-1): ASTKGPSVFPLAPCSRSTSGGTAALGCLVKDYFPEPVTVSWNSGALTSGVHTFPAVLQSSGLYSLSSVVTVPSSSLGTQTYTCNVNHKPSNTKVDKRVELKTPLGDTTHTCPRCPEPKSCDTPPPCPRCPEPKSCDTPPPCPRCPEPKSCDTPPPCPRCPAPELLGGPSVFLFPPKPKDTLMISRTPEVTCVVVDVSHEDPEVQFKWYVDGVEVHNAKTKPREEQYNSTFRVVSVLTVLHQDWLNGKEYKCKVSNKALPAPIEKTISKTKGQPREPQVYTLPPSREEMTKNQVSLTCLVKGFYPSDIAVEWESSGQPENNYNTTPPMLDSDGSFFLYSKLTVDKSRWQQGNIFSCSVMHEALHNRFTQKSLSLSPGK
Experimental: as §1, §2, §3, §4, §5, §6

[4] = target: T4, human plasma IgG1 (Homo sapiens, UniProt P01857)
T4 construct: the individual human plasma IgG isoforms: IgG1, IgG2, IgG3, or IgG4; purchased Calbiochem; host or cells: human plasma
T4 sequence (P01857 1-330 isoform P01857-1): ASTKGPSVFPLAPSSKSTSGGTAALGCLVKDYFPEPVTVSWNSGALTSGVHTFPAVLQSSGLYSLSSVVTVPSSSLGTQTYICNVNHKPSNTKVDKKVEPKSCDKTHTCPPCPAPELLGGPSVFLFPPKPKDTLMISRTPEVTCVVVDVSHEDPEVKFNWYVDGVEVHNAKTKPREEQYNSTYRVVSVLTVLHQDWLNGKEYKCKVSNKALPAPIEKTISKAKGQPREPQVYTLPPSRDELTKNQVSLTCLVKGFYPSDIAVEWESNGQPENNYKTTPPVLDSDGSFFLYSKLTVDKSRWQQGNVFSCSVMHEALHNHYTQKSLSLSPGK
Experimental: as §1, §2, §3, §4, §5, §6

[5] = 10 nM Tris-HCl, 500 mM Sodium Chloride, pH 7.5, read-out: KD (μM) IgG2 pH 7.5 + salt
[6] = 10 mM Sodium Bicarbonate, 500 mM Sodium Chloride, pH 9.5, read-out: KD (μM) IgG2 pH 9.5 + salt
[7] = 10 mM Sodium Bicarbonate, pH 9.5, read-out: KD (μM) IgG2 pH 9.5 − salt
[8] = 10 mM Sodium Citrate, 500 mM Sodium Chloride, pH 4.0, read-out: KD (μM) IgG2 pH 4.0 + salt
[9] = 10 mM Sodium Citrate, pH 4.0, read-out: KD (μM) IgG2 pH 4.0 − salt
[10] = 10 mM Tris-HCl, pH 7.5, read-out: KD (μM) IgG2 pH 7.5 − salt
[11] = TBS, 0.01% Tween 20, pH 7.5, read-out: KD (μM) IgG2 TBS
[12] = 10 nM Tris-HCl, 500 mM Sodium Chloride, pH 7.5, read-out: KD (μM) IgG4 pH 7.5 + salt
[13] = 10 mM Sodium Bicarbonate, 500 mM Sodium Chloride, pH 9.5, read-out: KD (μM) IgG4 pH 9.5 + salt
[14] = 10 mM Sodium Bicarbonate, pH 9.5, read-out: KD (μM) IgG4 pH 9.5 − salt
[15] = 10 mM Sodium Citrate, 500 mM Sodium Chloride, pH 4.0, read-out: KD (μM) IgG4 pH 4.0 + salt
[16] = 10 mM Sodium Citrate, pH 4.0, read-out: KD (μM) IgG4 pH 4.0 − salt
[17] = 10 mM Tris-HCl, pH 7.5, read-out: KD (μM) IgG4 pH 7.5 − salt
[18] = TBS, 0.01% Tween 20, pH 7.5, read-out: KD (μM) IgG4 TBS
[19] = 10 nM Tris-HCl, 500 mM Sodium Chloride, pH 7.5, read-out: KD (μM) IgG3 pH 7.5 + salt
[20] = 10 mM Sodium Bicarbonate, 500 mM Sodium Chloride, pH 9.5, read-out: KD (μM) IgG3 pH 9.5 + salt
[21] = 10 mM Sodium Bicarbonate, pH 9.5, read-out: KD (μM) IgG3 pH 9.5 − salt
[22] = 10 mM Sodium Citrate, 500 mM Sodium Chloride, pH 4.0, read-out: KD (μM) IgG3 pH 4.0 + salt
[23] = 10 mM Sodium Citrate, pH 4.0, read-out: KD (μM) IgG3 pH 4.0 − salt
[24] = 10 mM Tris-HCl, pH 7.5, read-out: KD (μM) IgG3 pH 7.5 − salt
[25] = TBS, 0.01% Tween 20, pH 7.5, read-out: KD (μM) IgG3 TBS
[26] = 10 nM Tris-HCl, 500 mM Sodium Chloride, pH 7.5, read-out: KD (μM) IgG1 pH 7.5 + salt
[27] = 10 mM Sodium Bicarbonate, 500 mM Sodium Chloride, pH 9.5, read-out: KD (μM) IgG1 pH 9.5 + salt
[28] = 10 mM Sodium Bicarbonate, pH 9.5, read-out: KD (μM) IgG1 pH 9.5 − salt
[29] = 10 mM Sodium Citrate, 500 mM Sodium Chloride, pH 4.0, read-out: KD (μM) IgG1 pH 4.0 + salt
[30] = 10 mM Sodium Citrate, pH 4.0, read-out: KD (μM) IgG1 pH 4.0 − salt
[31] = 10 mM Tris-HCl, pH 7.5, read-out: KD (μM) IgG1 pH 7.5 − salt
[32] = TBS, 0.01% Tween 20, pH 7.5, read-out: KD (μM) IgG1 TBS

| Kd [1, 5] | Kd [1, 6] | Kd [1, 7] | Kd [1, 8] | Kd [1, 9] | Kd [1, 10] | Kd [1, 11] | Kd [2, 12] | Kd [2, 13] | Kd [2, 14] | Kd [2, 15] | Kd [2, 16] | Kd [2, 18] | Kd [3, 20] | Kd [3, 21] | Kd [3, 22] | Kd [3, 23] | Kd [3, 24] | Kd [3, 25] | Kd [4, 26] | other results | Compound |
| --- | --- | --- | --- | --- | --- | --- | --- | --- | --- | --- | --- | --- | --- | --- | --- | --- | --- | --- | --- | --- | --- |
| > 10 µM | > 10 µM | > 10 µM | > 10 µM | > 10 µM | > 10 µM | > 10 µM | > 10 µM | > 10 µM | > 10 µM | > 10 µM | > 10 µM | > 10 µM | > 10 µM | > 10 µM | ~2 µM | ~2 µM | > 10 µM | > 10 µM | > 10 µM | Kd [2, 17]: > 10 µM; Kd [3, 19]: > 10 µM; Kd [4, 27]: > 10 µM; Kd [4, 28]: > 10 µM; Kd [4, 29]: > 10 µM; Kd [4, 30]: > 10 µM; Kd [4, 31]: > 10 µM; Kd [4, 32]: > 10 µM | CC(=O)N[C@@H](C)C(=O)NCC(=O)N1CCC[C@H]1C(=O)N[C@@H](Cc1c[nH]cn1)C(=O)N[C@@H](CC(N)=O)C(=O)N[C@H]1CSSC[C@@H](C(=O)N[C@@H](CCCCN)C(=O)N[C@@H](Cc2c[nH]c3ccccc23)C(=O)N[C@@H](Cc2ccccc2)C(=O)N2CCC[C@H]2C(=O)NCC(=O)N2CCC[C@H]2C(=O)N[C@@H](CCC(=O)O)C(=O)NCC(=O)NCC(=O)NCC(=O)N[C@@H](CCCCN)C(N)=O)NC(=O)[C@H](Cc2ccc(O)cc2)NC(=O)[C@H](Cc2c[nH]c3ccccc23)NC(=O)[C@H](Cc2ccc(O)cc2)NC(=O)[C@H](Cc2c[nH]cn2)NC(=O)[C@H](CC(=O)O)NC(=O)[C@H](CC(=O)O)NC1=O [DX389] (Ac-AGPHNCDDHYWYCKWFPGPEGGGK-NH2; disulfide 6-13 (inferred)) |
| > 10 µM | > 10 µM | > 10 µM | > 10 µM | > 10 µM | > 10 µM | > 10 µM | > 10 µM | > 10 µM | > 10 µM | > 10 µM | > 10 µM | > 10 µM | > 10 µM | > 10 µM | 0.3 to 0.6 µM | 0.3 to 0.6 µM | > 10 µM | > 10 µM | > 10 µM | Kd [2, 17]: > 10 µM; Kd [3, 19]: > 10 µM; Kd [4, 27]: > 10 µM; Kd [4, 28]: > 10 µM; Kd [4, 29]: > 10 µM; Kd [4, 30]: > 10 µM; Kd [4, 31]: > 10 µM; Kd [4, 32]: > 10 µM | CC[C@H](C)[C@@H]1NC(=O)[C@H](CCCCN)NC(=O)[C@@H](NC(=O)[C@H](Cc2c[nH]c3ccccc23)NC(=O)[C@H](Cc2ccc(O)cc2)NC(=O)[C@H](CO)NC(=O)CNC(=O)[C@H](C)NC(C)=O)CSSC[C@@H](C(=O)N2CCC[C@H]2C(=O)N[C@@H](CCC(N)=O)C(=O)N[C@@H](CO)C(=O)N2CCC[C@H]2C(=O)NCC(=O)N2CCC[C@H]2C(=O)N[C@@H](CCC(=O)O)C(=O)NCC(=O)NCC(=O)NCC(=O)N[C@@H](CCCCN)C(N)=O)NC(=O)[C@H](C(C)C)NC(=O)[C@H](CC(=O)O)NC(=O)[C@H](Cc2c[nH]c3ccccc23)NC1=O [DX392] (Ac-AGSYWCKIWDVCPQSPGPEGGGK-NH2; disulfide 6-12 (inferred)) |
| > 10 µM | > 10 µM | > 10 µM | > 10 µM | > 10 µM | > 10 µM | > 10 µM | > 10 µM | > 10 µM | > 10 µM | > 10 µM | > 10 µM | > 10 µM | > 10 µM | > 10 µM | 1 to 2 µM | 1 ± 0.26 µM | > 10 µM | > 10 µM | > 10 µM | Kd [2, 17]: > 10 µM; Kd [4, 27]: > 10 µM; Kd [4, 28]: > 10 µM; Kd [4, 29]: > 10 µM; Kd [4, 30]: > 10 µM; Kd [4, 31]: > 10 µM; Kd [4, 32]: > 10 µM | CC(=O)N[C@@H](C)C(=O)NCC(=O)N[C@@H](CCCCN)C(=O)N[C@@H](Cc1ccc(O)cc1)C(=O)N[C@@H](Cc1c[nH]c2ccccc12)C(=O)N[C@H]1CSSC[C@@H](C(=O)N2CCC[C@H]2C(=O)N[C@@H](C)C(=O)N[C@@H](CC(N)=O)C(=O)N2CCC[C@H]2C(=O)NCC(=O)N2CCC[C@H]2C(=O)N[C@@H](CCC(=O)O)C(=O)NCC(=O)NCC(=O)NCC(=O)N[C@@H](CCCCN)C(N)=O)NC(=O)[C@H](C(C)C)NC(=O)CNC(=O)[C@H](Cc2c[nH]c3ccccc23)NC(=O)[C@H](CC(C)C)NC(=O)[C@H](CC(N)=O)NC1=O [DX395] |
| > 10 µM | > 10 µM | > 10 µM | > 10 µM | ~2 µM | > 10 µM | > 10 µM | > 10 µM | > 10 µM | > 10 µM | > 10 µM | ~2 µM | > 10 µM | 0.3 ± 0.1 µM | > 10 µM | 0.04 to 0.3 µM | ~0.02 µM and 0.02 µM | > 10 µM | > 10 µM | > 10 µM | Kd [3, 19]: 0.3 ± 0.03 µM; Kd [4, 27]: > 10 µM; Kd [4, 28]: > 10 µM; Kd [4, 29]: > 10 µM; Kd [4, 30]: ~2 µM; Kd [4, 32]: > 10 µM | CC(=O)N[C@@H](C)C(=O)NCC(=O)N[C@@H](C)C(=O)N[C@@H](C)C(=O)N[C@H](C(=O)N[C@H]1CSSC[C@@H](C(=O)N[C@H](C(=O)N[C@@H](CC(=O)O)C(=O)N[C@@H](CO)C(=O)N2CCC[C@H]2C(=O)NCC(=O)N2CCC[C@H]2C(=O)N[C@@H](CCC(=O)O)C(=O)NCC(=O)NCC(=O)NCC(=O)N[C@@H](CCCCN)C(N)=O)[C@@H](C)O)NC(=O)[C@H](Cc2ccccc2)NC(=O)[C@H](Cc2c[nH]c3ccccc23)NC(=O)[C@H](CCC(N)=O)NC(=O)[C@H](Cc2ccc(O)cc2)NC(=O)[C@H](Cc2ccc(O)cc2)NC(=O)[C@H](Cc2c[nH]c3ccccc23)NC(=O)[C@H](Cc2ccc(O)cc2)NC(=O)[C@H](CO)NC(=O)[C@H]([C@@H](C)O)NC(=O)[C@H](CO)NC1=O)[C@@H](C)O [DX398] |
